Results from ChEMBL document CHEMBL5291721, “A preclinical secondary pharmacology resource illuminates target-adverse drug reaction associations of marketed drugs” (Nat Commun, 2023).

What was measured:
Histamine H3 receptor = Histamine H3 receptor (Homo sapiens, UniProt Q9Y5N1)
Prothrombin = Prothrombin (Homo sapiens, UniProt P00734); type: functional
Thromboxane A2 receptor [1] = molecular target: T1, Thromboxane A2 receptor (Homo sapiens, UniProt P21731); type: functional, cell-based
T1 sequence (P21731 whole entry): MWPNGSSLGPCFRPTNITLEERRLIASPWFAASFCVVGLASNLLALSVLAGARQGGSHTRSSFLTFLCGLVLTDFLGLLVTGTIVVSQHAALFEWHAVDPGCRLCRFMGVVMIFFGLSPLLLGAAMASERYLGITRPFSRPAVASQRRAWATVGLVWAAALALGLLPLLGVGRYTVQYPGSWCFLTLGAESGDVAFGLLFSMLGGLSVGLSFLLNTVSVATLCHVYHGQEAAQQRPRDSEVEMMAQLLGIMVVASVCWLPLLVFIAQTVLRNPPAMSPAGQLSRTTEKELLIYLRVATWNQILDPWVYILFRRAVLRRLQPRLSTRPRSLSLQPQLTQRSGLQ

[2] = molecular target: T2, Alpha-1A adrenergic receptor (Homo sapiens, UniProt P35348); type: functional, cell-based
T2 sequence (P35348 whole entry): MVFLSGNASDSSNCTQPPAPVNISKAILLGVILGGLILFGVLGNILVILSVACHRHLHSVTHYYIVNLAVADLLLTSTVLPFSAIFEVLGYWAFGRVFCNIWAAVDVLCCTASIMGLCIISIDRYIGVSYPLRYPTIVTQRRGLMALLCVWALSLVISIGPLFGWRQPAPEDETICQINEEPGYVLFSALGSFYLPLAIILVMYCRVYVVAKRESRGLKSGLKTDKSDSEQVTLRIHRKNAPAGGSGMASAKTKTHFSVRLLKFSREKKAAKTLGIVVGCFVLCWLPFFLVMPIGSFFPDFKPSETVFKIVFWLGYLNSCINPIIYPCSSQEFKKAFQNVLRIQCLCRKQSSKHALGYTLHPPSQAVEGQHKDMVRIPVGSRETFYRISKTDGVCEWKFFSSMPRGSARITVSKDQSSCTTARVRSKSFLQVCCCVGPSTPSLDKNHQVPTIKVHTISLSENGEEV

Thromboxane A2 receptor [3] = molecular target: T1, Thromboxane A2 receptor
[4] = molecular target: T3, Gastrin/cholecystokinin type B receptor (Homo sapiens, UniProt P32239)
T3 sequence (P32239 whole entry): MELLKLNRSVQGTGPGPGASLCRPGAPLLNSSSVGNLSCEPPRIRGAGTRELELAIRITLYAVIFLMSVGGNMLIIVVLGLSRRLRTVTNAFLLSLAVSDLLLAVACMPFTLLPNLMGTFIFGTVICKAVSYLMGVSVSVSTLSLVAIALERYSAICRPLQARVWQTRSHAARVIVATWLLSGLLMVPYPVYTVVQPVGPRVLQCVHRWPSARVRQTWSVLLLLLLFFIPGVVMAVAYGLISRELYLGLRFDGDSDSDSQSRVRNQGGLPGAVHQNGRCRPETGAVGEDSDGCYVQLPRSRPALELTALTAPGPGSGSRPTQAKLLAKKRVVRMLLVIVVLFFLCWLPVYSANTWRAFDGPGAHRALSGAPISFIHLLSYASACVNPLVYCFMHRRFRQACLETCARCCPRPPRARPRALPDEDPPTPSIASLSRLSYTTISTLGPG

[5] = molecular target: T2, Alpha-1A adrenergic receptor; type: functional, cell-based; remark: listed apart in the source
Estrogen receptor = molecular target: T4, Estrogen receptor (Homo sapiens, UniProt P03372)
T4 sequence (P03372 whole entry): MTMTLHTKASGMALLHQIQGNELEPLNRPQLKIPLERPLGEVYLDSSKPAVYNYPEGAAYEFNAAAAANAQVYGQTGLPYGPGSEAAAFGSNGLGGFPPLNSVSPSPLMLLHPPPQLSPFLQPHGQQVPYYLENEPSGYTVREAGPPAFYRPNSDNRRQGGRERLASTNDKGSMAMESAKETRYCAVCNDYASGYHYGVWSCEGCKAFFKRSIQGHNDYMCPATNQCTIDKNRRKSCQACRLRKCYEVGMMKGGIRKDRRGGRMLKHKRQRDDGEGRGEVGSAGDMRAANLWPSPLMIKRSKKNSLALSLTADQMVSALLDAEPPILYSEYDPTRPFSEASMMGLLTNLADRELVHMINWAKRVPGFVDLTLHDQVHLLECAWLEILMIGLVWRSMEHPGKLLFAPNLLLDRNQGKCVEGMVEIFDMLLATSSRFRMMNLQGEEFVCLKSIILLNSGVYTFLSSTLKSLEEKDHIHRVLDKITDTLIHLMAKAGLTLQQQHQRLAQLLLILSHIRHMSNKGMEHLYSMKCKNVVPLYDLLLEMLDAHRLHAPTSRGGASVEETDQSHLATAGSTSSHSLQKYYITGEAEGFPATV

[6] = molecular target: Kappa-type opioid receptor (Homo sapiens, UniProt P41145)
D(3) dopamine receptor = D(3) dopamine receptor (Homo sapiens, UniProt P35462)
[7] = molecular target: Gamma-aminobutyric acid receptor subunit alpha-1/alpha-2/beta-2/gamma-2 (Homo sapiens, UniProt P14867+P18507+P47869+P47870); type: protein-complex assay
Acetylcholinesterase = Acetylcholinesterase (Homo sapiens, UniProt P22303); type: functional
Thromboxane A2 receptor [8] = molecular target: T1, Thromboxane A2 receptor; type: functional, cell-based; remark: listed apart in the source
Vasopressin V1a receptor = Vasopressin V1a receptor (Homo sapiens, UniProt P37288)
[9] = molecular target: cGMP-inhibited 3',5'-cyclic phosphodiesterase 3A (Homo sapiens, UniProt Q14432); type: functional
[10] = molecular target: 5-hydroxytryptamine receptor 2A (Homo sapiens, UniProt P28223); type: functional, cell-based
Histamine H1 receptor = Histamine H1 receptor (Homo sapiens, UniProt P35367)
[11] = molecular target: Muscarinic acetylcholine receptor M3 (Homo sapiens, UniProt P20309)
Note: assay procedure not described here.

Acetylcholinesterase, sequence (P22303 whole entry): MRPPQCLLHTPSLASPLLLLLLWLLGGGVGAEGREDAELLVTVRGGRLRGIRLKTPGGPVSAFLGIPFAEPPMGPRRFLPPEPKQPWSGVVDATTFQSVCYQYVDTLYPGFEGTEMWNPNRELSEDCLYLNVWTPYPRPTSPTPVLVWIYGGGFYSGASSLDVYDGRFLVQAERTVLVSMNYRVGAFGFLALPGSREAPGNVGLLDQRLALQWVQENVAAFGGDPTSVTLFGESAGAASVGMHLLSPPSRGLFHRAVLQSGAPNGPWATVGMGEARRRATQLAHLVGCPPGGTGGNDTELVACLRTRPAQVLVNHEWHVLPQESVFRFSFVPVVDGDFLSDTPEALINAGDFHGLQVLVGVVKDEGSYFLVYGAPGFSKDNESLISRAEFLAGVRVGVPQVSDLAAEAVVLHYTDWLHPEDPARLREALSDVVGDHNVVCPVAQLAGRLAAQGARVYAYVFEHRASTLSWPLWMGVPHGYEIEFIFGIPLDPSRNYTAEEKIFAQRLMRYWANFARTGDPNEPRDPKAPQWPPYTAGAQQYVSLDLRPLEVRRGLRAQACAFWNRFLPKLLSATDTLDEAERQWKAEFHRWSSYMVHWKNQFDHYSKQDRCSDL
Gamma-aminobutyric acid receptor subunit alpha-1/alpha-2/beta-2/gamma-2, sequence (P14867 whole entry): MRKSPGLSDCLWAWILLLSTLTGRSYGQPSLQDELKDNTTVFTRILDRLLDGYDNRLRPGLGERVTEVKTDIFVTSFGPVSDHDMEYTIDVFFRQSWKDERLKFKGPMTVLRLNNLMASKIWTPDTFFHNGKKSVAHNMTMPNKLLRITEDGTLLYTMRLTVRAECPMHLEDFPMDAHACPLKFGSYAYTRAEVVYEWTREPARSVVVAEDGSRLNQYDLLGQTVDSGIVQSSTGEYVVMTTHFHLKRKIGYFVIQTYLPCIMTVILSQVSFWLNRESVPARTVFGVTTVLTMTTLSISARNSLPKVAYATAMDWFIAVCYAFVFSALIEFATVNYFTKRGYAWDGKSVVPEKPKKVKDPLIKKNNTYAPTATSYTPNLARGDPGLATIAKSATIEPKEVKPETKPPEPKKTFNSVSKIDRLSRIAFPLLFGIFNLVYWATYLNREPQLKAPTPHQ
Gamma-aminobutyric acid receptor subunit alpha-1/alpha-2/beta-2/gamma-2, sequence (P47870 whole entry): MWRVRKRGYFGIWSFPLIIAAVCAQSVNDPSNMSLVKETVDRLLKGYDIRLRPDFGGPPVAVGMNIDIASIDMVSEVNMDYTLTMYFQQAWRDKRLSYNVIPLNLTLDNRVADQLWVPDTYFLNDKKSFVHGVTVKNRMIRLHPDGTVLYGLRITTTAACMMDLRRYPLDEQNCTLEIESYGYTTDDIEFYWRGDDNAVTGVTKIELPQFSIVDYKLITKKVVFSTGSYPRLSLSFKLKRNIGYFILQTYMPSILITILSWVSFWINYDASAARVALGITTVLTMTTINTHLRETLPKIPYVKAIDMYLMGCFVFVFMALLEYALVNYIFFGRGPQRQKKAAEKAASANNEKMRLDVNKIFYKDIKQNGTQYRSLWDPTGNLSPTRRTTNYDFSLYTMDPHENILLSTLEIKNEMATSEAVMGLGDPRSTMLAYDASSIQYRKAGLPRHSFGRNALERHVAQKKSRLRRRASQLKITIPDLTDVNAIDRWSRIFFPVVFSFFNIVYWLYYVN
Gamma-aminobutyric acid receptor subunit alpha-1/alpha-2/beta-2/gamma-2, sequence (P18507 whole entry): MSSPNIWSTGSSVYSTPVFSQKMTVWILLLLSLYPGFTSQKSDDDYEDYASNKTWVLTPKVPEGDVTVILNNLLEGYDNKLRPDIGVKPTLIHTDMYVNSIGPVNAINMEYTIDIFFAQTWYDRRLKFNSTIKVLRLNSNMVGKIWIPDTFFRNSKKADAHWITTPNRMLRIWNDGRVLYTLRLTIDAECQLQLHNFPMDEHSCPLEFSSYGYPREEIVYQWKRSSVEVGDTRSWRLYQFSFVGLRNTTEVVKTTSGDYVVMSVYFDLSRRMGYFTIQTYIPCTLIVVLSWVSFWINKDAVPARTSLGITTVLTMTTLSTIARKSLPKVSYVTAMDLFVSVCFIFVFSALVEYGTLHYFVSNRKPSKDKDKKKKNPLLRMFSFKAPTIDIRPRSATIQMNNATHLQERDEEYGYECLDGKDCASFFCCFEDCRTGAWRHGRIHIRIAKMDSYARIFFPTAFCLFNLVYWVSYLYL
Gamma-aminobutyric acid receptor subunit alpha-1/alpha-2/beta-2/gamma-2, sequence (P47869 whole entry): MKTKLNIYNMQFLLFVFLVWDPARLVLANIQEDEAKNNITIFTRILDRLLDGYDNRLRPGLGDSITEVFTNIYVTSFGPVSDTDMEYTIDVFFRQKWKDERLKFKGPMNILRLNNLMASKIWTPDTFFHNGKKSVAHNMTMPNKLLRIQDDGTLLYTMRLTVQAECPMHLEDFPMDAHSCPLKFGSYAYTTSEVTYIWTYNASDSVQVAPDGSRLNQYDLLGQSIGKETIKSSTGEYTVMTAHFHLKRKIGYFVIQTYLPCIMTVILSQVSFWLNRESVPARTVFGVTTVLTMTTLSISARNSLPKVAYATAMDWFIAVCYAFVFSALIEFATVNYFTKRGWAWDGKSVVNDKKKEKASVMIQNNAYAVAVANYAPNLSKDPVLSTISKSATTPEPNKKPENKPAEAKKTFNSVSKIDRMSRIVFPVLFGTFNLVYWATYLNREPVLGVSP
5-hydroxytryptamine receptor 2A, sequence (P28223 whole entry): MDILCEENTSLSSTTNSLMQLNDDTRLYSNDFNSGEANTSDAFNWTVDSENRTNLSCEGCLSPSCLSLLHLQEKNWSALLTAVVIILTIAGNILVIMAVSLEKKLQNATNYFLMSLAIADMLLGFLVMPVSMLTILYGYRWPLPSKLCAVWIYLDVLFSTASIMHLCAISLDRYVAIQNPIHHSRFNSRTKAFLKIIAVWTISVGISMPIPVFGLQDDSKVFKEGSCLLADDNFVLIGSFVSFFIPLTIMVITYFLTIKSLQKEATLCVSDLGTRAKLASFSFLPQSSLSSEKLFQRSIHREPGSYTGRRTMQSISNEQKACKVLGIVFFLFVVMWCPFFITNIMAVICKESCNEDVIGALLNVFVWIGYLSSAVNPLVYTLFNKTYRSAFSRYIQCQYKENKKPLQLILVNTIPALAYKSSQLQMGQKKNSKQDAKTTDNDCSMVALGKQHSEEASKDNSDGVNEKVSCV
cGMP-inhibited 3',5'-cyclic phosphodiesterase 3A, sequence (Q14432 whole entry): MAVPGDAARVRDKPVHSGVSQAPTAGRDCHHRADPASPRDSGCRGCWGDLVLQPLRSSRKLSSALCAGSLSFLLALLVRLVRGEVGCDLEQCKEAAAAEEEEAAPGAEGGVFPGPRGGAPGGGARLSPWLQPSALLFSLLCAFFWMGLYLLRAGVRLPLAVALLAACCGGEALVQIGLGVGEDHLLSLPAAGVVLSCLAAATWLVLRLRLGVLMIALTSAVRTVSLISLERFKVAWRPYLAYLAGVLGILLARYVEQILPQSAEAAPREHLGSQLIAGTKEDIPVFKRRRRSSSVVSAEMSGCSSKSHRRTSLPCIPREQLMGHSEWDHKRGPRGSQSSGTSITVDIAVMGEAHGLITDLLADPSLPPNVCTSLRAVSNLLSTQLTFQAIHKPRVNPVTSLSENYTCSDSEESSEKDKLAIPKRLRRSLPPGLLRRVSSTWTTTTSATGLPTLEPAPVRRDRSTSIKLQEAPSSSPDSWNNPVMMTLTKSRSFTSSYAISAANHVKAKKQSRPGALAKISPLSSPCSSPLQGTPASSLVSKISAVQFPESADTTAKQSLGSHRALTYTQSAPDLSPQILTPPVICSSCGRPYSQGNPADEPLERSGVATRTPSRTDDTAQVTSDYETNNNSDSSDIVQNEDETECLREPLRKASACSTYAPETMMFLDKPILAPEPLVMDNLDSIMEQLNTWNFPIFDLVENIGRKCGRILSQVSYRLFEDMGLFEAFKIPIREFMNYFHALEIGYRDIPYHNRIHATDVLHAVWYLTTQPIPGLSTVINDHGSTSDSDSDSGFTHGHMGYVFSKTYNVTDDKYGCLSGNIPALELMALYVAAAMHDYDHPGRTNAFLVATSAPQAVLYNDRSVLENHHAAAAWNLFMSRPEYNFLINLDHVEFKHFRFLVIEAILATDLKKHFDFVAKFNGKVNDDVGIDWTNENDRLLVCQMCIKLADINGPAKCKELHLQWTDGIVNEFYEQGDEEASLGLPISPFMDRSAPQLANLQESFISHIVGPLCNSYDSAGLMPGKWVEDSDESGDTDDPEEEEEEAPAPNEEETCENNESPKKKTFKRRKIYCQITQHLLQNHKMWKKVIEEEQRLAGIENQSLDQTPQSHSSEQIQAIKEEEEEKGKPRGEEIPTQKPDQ
Kappa-type opioid receptor, sequence (P41145 whole entry): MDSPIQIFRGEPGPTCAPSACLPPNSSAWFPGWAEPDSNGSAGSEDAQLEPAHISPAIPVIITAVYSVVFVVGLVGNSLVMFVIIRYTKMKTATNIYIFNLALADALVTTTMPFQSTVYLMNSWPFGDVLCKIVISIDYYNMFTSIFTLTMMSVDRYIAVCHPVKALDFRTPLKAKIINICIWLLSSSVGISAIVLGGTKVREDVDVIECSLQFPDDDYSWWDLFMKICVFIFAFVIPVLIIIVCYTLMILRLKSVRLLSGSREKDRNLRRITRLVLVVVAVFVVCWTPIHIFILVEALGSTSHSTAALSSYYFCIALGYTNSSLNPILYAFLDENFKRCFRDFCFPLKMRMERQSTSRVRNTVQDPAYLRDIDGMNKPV
Histamine H3 receptor, sequence (Q9Y5N1 whole entry): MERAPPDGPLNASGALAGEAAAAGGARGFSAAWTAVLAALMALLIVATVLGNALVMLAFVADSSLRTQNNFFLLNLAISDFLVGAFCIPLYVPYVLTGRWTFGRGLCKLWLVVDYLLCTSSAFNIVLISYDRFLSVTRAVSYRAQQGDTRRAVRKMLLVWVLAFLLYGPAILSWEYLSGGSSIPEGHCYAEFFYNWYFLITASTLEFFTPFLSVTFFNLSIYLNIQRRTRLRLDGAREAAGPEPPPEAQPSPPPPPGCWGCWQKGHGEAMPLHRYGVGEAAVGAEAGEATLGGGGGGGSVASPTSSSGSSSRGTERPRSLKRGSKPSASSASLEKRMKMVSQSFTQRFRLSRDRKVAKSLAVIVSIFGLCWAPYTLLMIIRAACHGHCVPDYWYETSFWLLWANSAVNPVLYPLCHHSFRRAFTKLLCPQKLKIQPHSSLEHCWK

SMILES: Nc1nc(N)c2nc(-c3ccccc3)c(N)nc2n1
- AC50 (Histamine H3 receptor): > 30 µM
- AC50 (Prothrombin): > 3 µM
- AC50 (Thromboxane A2 receptor [1]): > 30 µM
- AC50 [2]: > 30 µM
- AC50 (Thromboxane A2 receptor [3]): > 30 µM
- AC50 [4]: > 30 µM
- AC50 [5]: > 30 µM
- AC50 (Estrogen receptor): > 30 µM
- AC50 [6]: > 30 µM
- AC50 (D(3) dopamine receptor): > 30 µM
- AC50 [7]: > 30 µM
- AC50 (Acetylcholinesterase): > 30 µM
- AC50 (Thromboxane A2 receptor [8]): > 30 µM
- AC50 (Vasopressin V1a receptor): > 30 µM
- AC50 [9]: > 30 µM

SMILES: Oc1ncnc2[nH]ncc12 [ALLOPURINOL]
- AC50 (Histamine H3 receptor): > 30 µM
- AC50 (Prothrombin): > 30 µM
- AC50 (Thromboxane A2 receptor [1]): > 30 µM
- AC50 [2]: > 30 µM
- AC50 (Thromboxane A2 receptor [3]): > 30 µM
- AC50 [4]: > 30 µM
- AC50 [5]: > 30 µM
- AC50 (Estrogen receptor): > 30 µM
- AC50 [6]: > 10 µM
- AC50 (D(3) dopamine receptor): > 30 µM
- AC50 [7]: > 30 µM
- AC50 (Acetylcholinesterase): > 30 µM
- AC50 (Thromboxane A2 receptor [8]): > 30 µM
- AC50 (Vasopressin V1a receptor): > 10 µM
- AC50 [9]: > 30 µM

SMILES: CN(CCOc1ccc(NS(C)(=O)=O)cc1)CCc1ccc(NS(C)(=O)=O)cc1 [DOFETILIDE]
- AC50 [10]: > 30 µM
- AC50 (Histamine H1 receptor): > 10 µM
- AC50 (Histamine H3 receptor): > 10 µM
- AC50 [11]: > 10 µM
- AC50 (Prothrombin): > 30 µM
- AC50 (Thromboxane A2 receptor [1]): > 30 µM
- AC50 [2]: > 30 µM
- AC50 (Thromboxane A2 receptor [3]): > 30 µM
- AC50 [4]: > 30 µM
- AC50 [5]: > 30 µM
- AC50 (Estrogen receptor): > 30 µM
- AC50 [6]: > 10 µM
- AC50 (D(3) dopamine receptor): 3.36 µM
- AC50 [7]: > 30 µM
- AC50 (Acetylcholinesterase): 13.6 µM
- AC50 (Thromboxane A2 receptor [8]): > 30 µM
- AC50 (Vasopressin V1a receptor): > 10 µM
- AC50 [9]: > 30 µM

SMILES: COc1cc2c(cc1OC)C(=O)C(CC1CCN(Cc3ccccc3)CC1)C2 (stereo not given) [DONEPEZIL]
- AC50 [10]: > 30 µM
- AC50 (Histamine H1 receptor): > 10 µM
- AC50 (Histamine H3 receptor): 2.5 µM
- AC50 [11]: > 30 µM
- AC50 (Prothrombin): > 30 µM
- AC50 (Thromboxane A2 receptor [1]): > 30 µM
- AC50 (Thromboxane A2 receptor [3]): > 30 µM
- AC50 [4]: > 30 µM
- AC50 (Estrogen receptor): > 30 µM
- AC50 [6]: > 10 µM
- AC50 [7]: > 30 µM
- AC50 (Thromboxane A2 receptor [8]): > 30 µM
- AC50 (Vasopressin V1a receptor): > 30 µM
- AC50 [9]: > 30 µM

SMILES: CC(C)C(=O)Nc1ccc([N+](=O)[O-])c(C(F)(F)F)c1 [FLUTAMIDE]
- AC50 (Histamine H3 receptor): > 30 µM
- AC50 (Prothrombin): > 30 µM
- AC50 (Thromboxane A2 receptor [1]): 18.4 µM
- AC50 [2]: > 30 µM
- AC50 (Thromboxane A2 receptor [3]): > 30 µM
- AC50 [4]: > 30 µM
- AC50 [5]: > 30 µM
- AC50 (Estrogen receptor): > 30 µM
- AC50 [6]: > 10 µM
- AC50 (D(3) dopamine receptor): > 30 µM
- AC50 [7]: > 10 µM
- AC50 (Acetylcholinesterase): > 30 µM
- AC50 (Thromboxane A2 receptor [8]): > 30 µM
- AC50 (Vasopressin V1a receptor): > 30 µM
- AC50 [9]: > 30 µM

SMILES: C[N+]1(C)[C@@H]2C[C@@H](OC(=O)[C@H](CO)c3ccccc3)C[C@H]1[C@@H]1O[C@@H]12 [METHSCOPOLAMINE]
- AC50 (Prothrombin): > 30 µM
- AC50 (Thromboxane A2 receptor [1]): > 30 µM
- AC50 (Estrogen receptor): > 30 µM
- AC50 (D(3) dopamine receptor): > 30 µM
- AC50 [7]: > 30 µM
- AC50 (Acetylcholinesterase): > 30 µM
- AC50 (Thromboxane A2 receptor [8]): > 30 µM
- AC50 [9]: > 30 µM

SMILES: CC(=O)Oc1c(C)cc(OCC(O)CNC(C)C)c(C)c1C (stereo not given) [METIPRANOLOL]
- AC50 (Prothrombin): > 30 µM
- AC50 (Thromboxane A2 receptor [1]): > 30 µM
- AC50 (Estrogen receptor): > 30 µM
- AC50 (D(3) dopamine receptor): > 30 µM
- AC50 [7]: > 30 µM
- AC50 (Acetylcholinesterase): > 30 µM
- AC50 (Thromboxane A2 receptor [8]): > 30 µM
- AC50 [9]: > 30 µM

SMILES: CC(C(=O)O)c1ccc(N2CC=CC2)c(Cl)c1 (stereo not given) [PIRPROFEN]
- AC50 [10]: > 30 µM
- AC50 (Histamine H1 receptor): > 10 µM
- AC50 (Histamine H3 receptor): > 10 µM
- AC50 [11]: > 10 µM
- AC50 (Prothrombin): > 30 µM
- AC50 (Thromboxane A2 receptor [1]): > 30 µM
- AC50 [2]: > 30 µM
- AC50 (Thromboxane A2 receptor [3]): > 30 µM
- AC50 [4]: > 30 µM
- AC50 [5]: > 30 µM
- AC50 (Estrogen receptor): > 30 µM
- AC50 [6]: > 10 µM
- AC50 (D(3) dopamine receptor): > 30 µM
- AC50 [7]: > 30 µM
- AC50 (Acetylcholinesterase): > 30 µM
- AC50 (Thromboxane A2 receptor [8]): > 30 µM
- AC50 (Vasopressin V1a receptor): > 10 µM
- AC50 [9]: > 30 µM

SMILES: CC(O)CO (stereo not given) [PROPYLENE GLYCOL]
- AC50 (Prothrombin): > 30 µM
- AC50 (Thromboxane A2 receptor [1]): > 30 µM
- AC50 (Estrogen receptor): > 30 µM
- AC50 (D(3) dopamine receptor): > 30 µM
- AC50 [7]: > 30 µM
- AC50 (Acetylcholinesterase): > 30 µM
- AC50 (Thromboxane A2 receptor [8]): > 30 µM
- AC50 [9]: > 30 µM

SMILES: NC(=O)c1cnccn1 [PYRAZINAMIDE]
- AC50 (Histamine H3 receptor): > 30 µM
- AC50 (Prothrombin): > 30 µM
- AC50 (Thromboxane A2 receptor [1]): > 30 µM
- AC50 [2]: > 30 µM
- AC50 (Thromboxane A2 receptor [3]): > 30 µM
- AC50 [4]: > 30 µM
- AC50 [5]: 28 µM
- AC50 (Estrogen receptor): > 30 µM
- AC50 [6]: > 30 µM
- AC50 (D(3) dopamine receptor): > 30 µM
- AC50 [7]: > 30 µM
- AC50 (Acetylcholinesterase): > 30 µM
- AC50 (Thromboxane A2 receptor [8]): > 30 µM
- AC50 (Vasopressin V1a receptor): > 30 µM
- AC50 [9]: > 30 µM

SMILES: CC(C)OC(=O)[C@H](C)N[P@](=O)(OC[C@H]1O[C@@H](n2ccc(=O)[nH]c2=O)[C@](C)(F)[C@@H]1O)Oc1ccccc1 [SOFOSBUVIR]
- AC50 (Prothrombin): > 30 µM
- AC50 (Thromboxane A2 receptor [1]): > 30 µM
- AC50 (Estrogen receptor): > 30 µM
- AC50 (D(3) dopamine receptor): > 30 µM
- AC50 [7]: > 30 µM
- AC50 (Acetylcholinesterase): > 30 µM
- AC50 (Thromboxane A2 receptor [8]): > 30 µM
- AC50 [9]: > 30 µM

SMILES: CCOC(=O)N[C@@H]1CC[C@@H]2[C@@H](C1)C[C@H]1C(=O)O[C@H](C)[C@H]1[C@H]2/C=C/c1ccc(-c2cccc(F)c2)cn1 [VORAPAXAR]
- AC50 (Prothrombin): > 30 µM
- AC50 (Thromboxane A2 receptor [1]): > 10 µM
- AC50 (Estrogen receptor): > 30 µM
- AC50 (D(3) dopamine receptor): > 30 µM
- AC50 [7]: > 30 µM
- AC50 (Acetylcholinesterase): > 30 µM
- AC50 (Thromboxane A2 receptor [8]): > 30 µM
- AC50 [9]: > 30 µM
